Measurements taken from patent publication US12577234B2, “Antagonists of the muscarinic acetylcholine receptor M4” (Vanderbilt University, priority 2017, dated 2026).

Molecular target: T1, human mAChR M4 (Homo sapiens, UniProt P08173)
T1 construct: expressed in transfected cells; host or cells: CHO-K1 (ATCC), stably co-expressing chimeric G protein Gqi5
T1 sequence (P08173 1-479): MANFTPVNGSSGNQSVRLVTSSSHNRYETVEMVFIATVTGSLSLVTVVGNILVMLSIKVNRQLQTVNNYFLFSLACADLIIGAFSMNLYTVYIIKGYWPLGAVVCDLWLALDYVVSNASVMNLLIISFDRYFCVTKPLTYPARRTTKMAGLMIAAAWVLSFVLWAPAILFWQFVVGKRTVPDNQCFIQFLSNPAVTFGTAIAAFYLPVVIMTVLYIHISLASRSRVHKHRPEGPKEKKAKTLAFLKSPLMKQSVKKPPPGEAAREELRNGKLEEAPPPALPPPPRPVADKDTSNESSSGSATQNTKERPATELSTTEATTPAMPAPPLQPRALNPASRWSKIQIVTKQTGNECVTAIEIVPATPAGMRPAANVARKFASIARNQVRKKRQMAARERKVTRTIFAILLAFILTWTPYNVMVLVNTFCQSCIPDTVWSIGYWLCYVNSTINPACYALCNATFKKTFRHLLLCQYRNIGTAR
Test: mAChR M4 cell-based functional assay (calcium mobilization, EC80 acetylcholine), human M4
Settings: for Emin: human M4, % ACh maximum at 30 μM
Outline: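 CHO-K1 cells stably expressing human M4 with chimeric Gqi5; intracellular calcium rise read on FDSS as fluorescence static ratio at 1 Hz. Compounds in 10-point 1:3 dilution series; IC50 taken as concentration-dependent decrease of the EC80 acetylcholine response, four-parameter logistic fit.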

[1] = Table 9, M4/Gqi5/CHO-K1 cells, decrease of EC80 acetylcholine response
[2] = Table 10, M4/Gqi5/CHO-K1 cells, decrease of EC80 acetylcholine response

Row | Compound | IC50 [1] | Emin (Table 9) | Human M4 Emin (Table 10) | IC50 [2] | further results
1 | Cc1nn(C)cc1-c1ccc(OCC2C[C@@H]3CN(Cc4ccc5c(c4)OCO5)C[C@@H]3C2)nn1 (stereo partly drawn) [Compound 105, (3aR,6aS)-2-(1,3-benzodioxol-5-ylmethyl)-5-[[6-(1,3-dimethylpyrazol-4-yl)pyridazin-3-yl]oxymethyl]-3,3a,4,5,6,6a-hexahydro-1H-cyclopenta[c]pyrrole] | 0.329 µM | 5.63% |  |  | 
2 | Fc1ccc(Cl)c(-c2ccc(N[C@H]3C[C@@H]4CN(Cc5ccoc5)C[C@@H]4C3)nn2)c1 [Compound 178, (3aR,5s,6aS)-N-[6-(2-chloro-5-fluoro-phenyl)pyridazin-3-yl]-2-(3-furylmethyl)-3,3a,4,5,6,6a-hexahydro-1H-cyclopenta[c]pyrrol-5-amine] |  |  | 3% | 0.0451 µM | 
3 | N#Cc1ccc(F)cc1-c1ccc(N[C@H]2C[C@@H]3CN(CC4CCOCC4)C[C@@H]3C2)nn1 [Compound 213, 2-[6-[[(3aR,5s,6aS)-2-(tetrahydropyran-4-ylmethyl)-3,3a,4,5,6,6a-hexahydro-1H-cyclopenta[c]pyrrol-5-yl]amino]pyridazin-3-yl]-4-fluoro-benzonitrile] |  |  | 16% | 0.0118 µM | 
4 | CC(=O)Nc1ccc(-c2cnc(N[C@H]3C[C@@H]4CN(CCC(C)(C)C)C[C@@H]4C3)cn2)cc1 [Compound 156, N-[4-[5-[[(3aR,5s,6aS)-2-(3,3-dimethylbutyl)-3,3a,4,5,6,6a-hexahydro-1H-cyclopenta[c]pyrrol-5-yl]amino]pyrazin-2-yl]phenyl]acetamide] |  |  | 5% | 0.192 µM | 
5 | Cc1cnn(C)c1-c1ccc(NCCC2C[C@@H]3CN(CC45CC6CC(CC(C6)C4)C5)C[C@@H]3C2)nn1 (stereo partly drawn) [Compound 121, N-[2-[(3aR,6aS)-2-(1-adamantylmethyl)-3,3a,4,5,6,6a-hexahydro-1H-cyclopenta[c]pyrrol-5-yl]ethyl]-6-(2,4-dimethylpyrazol-3-yl)pyridazin-3-amine] | 0.047 µM | 3.59% |  |  | 
6 | Cc1cnn(C)c1-c1ccc(NC(=O)C2C[C@@H]3CN(CCC(C)(C)C)C[C@@H]3C2)nn1 (stereo partly drawn) [Compound 74, (3aR,6aS)-2-(3,3-Dimethylbutyl)-N-[6-(2,4-dimethylpyrazol-3-yl)pyridazin-3-yl]-3,3a,4,5,6,6a-hexahydro-1H-cyclopenta[c]pyrrole-5-carboxamide] | 0.263 µM | 3.37% |  |  | 
7 | Cc1nn(C)cc1-c1ccc(O[C@@H]2C[C@@H]3CN(CC4CCOCC4)C[C@@H]3C2)nn1 [Compound 50, (3aR,5r,6aS)-5-[6-(1,3-dimethylpyrazol-4-yl)pyridazin-3-yl]oxy-2-(tetrahydropyran-4-ylmethyl)-3,3a,4,5,6,6a-hexahydro-1H-cyclopenta[c]pyrrole] | 6.03 µM | 15.6% |  |  | 
8 | Fc1ccc(Cl)c(-c2ccc(N[C@H]3C[C@@H]4CN(Cc5ccco5)C[C@@H]4C3)nn2)c1 [Compound 176, (3aR,5s,6aS)-N-[6-(2-chloro-5-fluoro-phenyl)pyridazin-3-yl]-2-(2-furylmethyl)-3,3a,4,5,6,6a-hexahydro-1H-cyclopenta[c]pyrrol-5-amine] |  |  | 3% | 0.0261 µM | 
9 | Fc1ccc(Cl)c(-c2ccc(OCC3C[C@@H]4CN(CC5CC6C=CC5C6)C[C@@H]4C3)nn2)c1 (stereo partly drawn) [Compound 108, (3aR,6aS)-2-(5-bicyclo[2.2.1]hept-2-enylmethyl)-5-[[6-(2-chloro-5-fluoro-phenyl)pyridazin-3-yl]oxymethyl]-3,3a,4,5,6,6a-hexahydro-1H-cyclopenta[c]pyrrole] | 0.134 µM | 3.90% |  |  | 
10 | Fc1ccc(Cl)c(-c2ccc(O[C@@H]3C[C@@H]4CN(CC5CCOCC5)C[C@@H]4C3)nn2)c1 [Compound 59, (3aR,5r,6aS)-5-[6-(2-chloro-5-fluoro-phenyl)pyridazin-3-yl]oxy-2-(tetrahydropyran-4-ylmethyl)-3,3a,4,5,6,6a-hexahydro-1H-cyclopenta[c]pyrrole] |  | 20.7% |  |  | IC50 (Table 9, μM): > 10 µM
11 | Fc1cccc(-c2ccc(N[C@H]3C[C@@H]4CN(CC5CCOCC5)C[C@@H]4C3)nn2)c1Cl [Compound 202, (3aR,5s,6aS)-N-[6-(2-chloro-3-fluoro-phenyl)pyridazin-3-yl]-2-(tetrahydropyran-4-ylmethyl)-3,3a,4,5,6,6a-hexahydro-1H-cyclopenta[c]pyrrol-5-amine] |  |  | 5% | 0.000517 µM | 
12 | c1ccc(-c2cnc(N[C@H]3C[C@@H]4CN(CC5CCOCC5)C[C@@H]4C3)s2)cc1 [Compound 230, N-[(3aR,5s,6aS)-2-(tetrahydropyran-4-ylmethyl)-3,3a,4,5,6,6a-hexahydro-1H-cyclopenta[c]pyrrol-5-yl]-5-phenyl-thiazol-2-amine] |  |  | 41% |  | IC50 (Table 10, μM): > 10 µM
13 | c1cc(-c2ccc(N[C@H]3C[C@@H]4CN(CC5CCOCC5)C[C@@H]4C3)nn2)c[nH]1 [Compound 229, (3aR,5s,6aS)-N-[6-(1H-pyrrol-3-yl)pyridazin-3-yl]-2-(tetrahydropyran-4-ylmethyl)-3,3a,4,5,6,6a-hexahydro-1H-cyclopenta[c]pyrrol-5-amine] |  |  | 11% | 0.102 µM | 
14 | Cc1nn(C)cc1-c1ccc(N[C@H]2C[C@@H]3CN(CC4CCCOC4)C[C@@H]3C2)nn1 (stereo partly drawn) [Compound 6, (3aR,5s,6aS)-N-[6-(1,3-dimethylpyrazol-4-yl)pyridazin-3-yl]-2-(tetrahydropyran-3-ylmethyl)-3,3a,4,5,6,6a-hexahydro-1H-cyclopenta[c]pyrrol-5-amine] | 0.0114 µM | 3.33% |  |  | 
15 | Cc1cnn(C)c1-c1ccc(OCC2C[C@@H]3CN(CC4CC5C=CC4C5)C[C@@H]3C2)nn1 (stereo partly drawn) [Compound 80, (3aR,6aS)-2-(5-bicyclo[2.2.1]hept-2-enylmethyl)-5-[[6-(2,4-dimethylpyrazol-3-yl)pyridazin-3-yl]oxymethyl]-3,3a,4,5,6,6a-hexahydro-1H-cyclopenta[c]pyrrole] | 0.0734 µM | 4.07% |  |  | 
16 | Cc1cnn(C)c1-c1ccc(OCC2C[C@@H]3CN(CC45CC6CC(CC(C6)C4)C5)C[C@@H]3C2)nn1 (stereo partly drawn) [Compound 79, (3sR,6aS)-2-(1-adamantylmethyl)-5-[[6-(2,4-dimethylpyrazol-3-yl)pyridazin-3-yl]oxymethyl]-3,3a,4,5,6,6a-hexahydro-1H-cyclopenta[c]pyrrole] | 0.119 µM | 3.76% |  |  | 
17 | Fc1ccc(CN2C[C@H]3CC(COc4ccc(-c5cc(F)ccc5Cl)nn4)C[C@H]3C2)cc1 (stereo partly drawn) [Compound 116, (3aR,6aS)-5-[[6-(2-chloro-5-fluoro-phenyl)pyridazin-3-yl]oxymethyl]-2-[(4-fluorophenyl)methyl]-3,3a,4,5,6,6a-hexahydro-1H-cyclopenta[c]pyrrole] | 3.38 µM | 6.49% |  |  | 
18 | Cc1cccnc1CN1C[C@H]2CC(COc3ccc(-c4cc(F)ccc4Cl)nn3)C[C@H]2C1 (stereo partly drawn) [Compound 118, (3aR,6aS)-5-[[6-(2-chloro-5-fluoro-phenyl)pyridazin-3-yl]oxymethyl]-2-[(3-methyl-2-pyridyl)methyl]-3,3a,4,5,6,6a-hexahydro-1H-cyclopenta[c]pyrrole] | 0.694 µM | 2.25% |  |  | 
19 | Cc1nn(C)cc1-c1ccc(O[C@@H]2C[C@@H]3CN(CCC(C)(C)C)C[C@@H]3C2)nn1 [Compound 48, (3aR,5r,6aS)-2-(3,3-dimethylbutyl)-5-[6-(1,3-dimethylpyrazol-4-yl)pyridazin-3-yl]oxy-3,3a,4,5,6,6a-hexahydro-1H-cyclopenta[c]pyrrole] | 0.361 µM | 3.79% |  |  | 
20 | Cc1nn(C)cc1-c1cnc(N[C@H]2C[C@@H]3CN(CC45CC6CC(CC(C6)C4)C5)C[C@@H]3C2)cn1 [Compound 155, (3aR,5s6aS)-2-(1-adamantylmethyl)-N-[5-(1,3-dimethylpyrazol-4-yl)pyrazin-2-yl]-3,3a,4,5,6,6a-hexahydro-1H-cyclopenta[c]pyrrol-5-amine] |  |  | 4% | 0.0159 µM | 
21 | FC(F)(F)c1ccc(-c2ccc(N[C@H]3C[C@@H]4CN(CC5CCOCC5)C[C@@H]4C3)nn2)cn1 [Compound 211, (3aR,5s,6aS)-2-(tetrahydropyran-4-ylmethyl)-N-[6-[6-(trifluoromethyl)-3-pyridyl]pyridazin-3-yl]-3,3a,4,5,6,6a-hexahydro-1H-cyclopenta[c]pyrrol-5-amine] |  |  | 24% | 0.0855 µM | 
22 | Fc1ccc(Cl)c(-c2ccc(OCC3C[C@@H]4CN(Cc5ccc6c(c5)OCO6)C[C@@H]4C3)nn2)c1 (stereo partly drawn) [Compound 119, (3aR,6aS)-2-(1,3-benzodioxol-5-ylmethyl)-5-[[6-(2-chloro-5-fluoro-phenyl)pyridazin-3-yl]oxymethyl]-3,3a,4,5,6,6a-hexahydro-1H-cyclopenta[c]pyrrole] | 0.668 µM | 4.24% |  |  | 
23 | Cc1cccnc1CN1C[C@H]2CC(COc3ccc(-c4cn(C)nc4C)nn3)C[C@H]2C1 (stereo partly drawn) [Compound 104, (3aR,6aS)-5-[[6-(1,3-dimethylpyrazol-4-yl)pyridazin-3-yl]oxymethyl]-2-[(3-methyl-2-pyridyl)methyl]-3,3a,4,5,6,6a-hexahydro-1H-cyclopenta[c]pyrrole] | 1.53 µM | 6.78% |  |  | 
